Where two headings read alike, the source gives them in different places.
Key:
6C3HED lymphosarcoma = type: in vivo; conditions: tumor mass vs control on day 11
Experimental: On day zero, 2 mm^2 trocar fragments of 6C3HED lymphosarcoma were implanted subcutaneously in the axillary region into groups of six C3H/He female mice. Starting on day 1, the test compound was administered intraperitoneally in 40% Encapsin given once daily for nine days. Control animals received identical treatment without test compound. The percentage inhibition given in Table 4 below was calculated by comparing the mass of the control tumors (receiving diluent only) on day 11 to those of animals receiving test compound.

CCRF-CEM = test: In vitro cell growth inhibition (MTT, modified Mosmann method), CCRF-CEM; type: cell-based; conditions: Homo sapiens, continuous (72-hour) exposure per table title, Table 2 gives 5 days incubation, mean IC50, read-out: IC50 Cell CultureCCRF-CEM
Experimental: (§1) All cultures were maintained at 37°C, 5% air-CO2 in a humidified incubator.
(§2) Stock solutions of the inhibitors were prepared in 10 mM sodium bicarbonate in water and stored in 1 ml aliquots at - 20°C for cell culture experiments. Cell growth inhibition was measured by a modification of the method of Mosmann, J. Immunol. Methods 65 (1983), 55-63.
(§3) Mid-log phase cells of each cell line were diluted to 18,500 cells/ml in fresh RPMI growth medium (Mediatech, Washington, DC) supplemented with dialyzed fetal calf serum (Hyclone Laboratories Inc., Logan, UT) and then aliquotted into columns 2 through 12 of 96-well microtiter plates. Column 1 was filled with the same volume ([…]) of fresh medium, without cells, for use as a blank. The plates were then placed in a 37°C, 5% air-CO2 incubator. After 1 to 4 hours, plates were removed from the incubator followed by addition of Compound 1 at 10 x final concentration, […] in binary dilutions, to columns 12 to 4. […] The extent of metabolized MTT was measured spectrophotometrically at 540 nm on a Molecular Devices Vmax kinetic microplate reader. The concentration of drug required to reduce cell growth by 50% as measured by MTT metabolism was determined by interpolation between the O.D. (minus blank) immediately above and below 50% of control O.D. (minus blank).

[1] = test system: C3H/BA mammary adenocarcinoma; type: in vivo; conditions: tumor mass vs control on day 14
Experimental: On day zero, 2 mm^2 trocar fragments of C3H/BA mammary adenocarcinoma were implanted subcutaneously in the axillary region into groups of six C3H/He female mice. Starting on day 1, the test compound was administered intraperitoneally in 40% Encapsin given once daily for nine days. Control animals received identical treatment without test compound. The percentage of inhibition was calculated by comparing the mass of the control tumors (receiving diluent only) on day 14 to those of animals receiving test compound.

L1210 = test: In vitro cell growth inhibition (MTT, modified Mosmann method), L1210; type: cell-based; conditions: Mus musculus, continuous (72-hour) exposure, mean IC50, read-out: IC50 Cell Culture L1210
Experimental: as §1, §2, §3

[2] = biological target: catalytic domain of the human GARFT (Homo sapiens, UniProt P22102); test: biochemical
catalytic domain of the human GARFT, sequence (P22102 810-1010 limits assumed): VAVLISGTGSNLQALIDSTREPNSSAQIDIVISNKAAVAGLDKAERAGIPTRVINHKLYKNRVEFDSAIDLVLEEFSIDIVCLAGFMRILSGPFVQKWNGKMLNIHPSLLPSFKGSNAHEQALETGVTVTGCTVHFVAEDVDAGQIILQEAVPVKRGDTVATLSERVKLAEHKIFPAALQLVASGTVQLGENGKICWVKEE
Experimental: The GAR-transformylase (GARFT) assay method of Young et al., Biochemistry 23 (1984), 3979-3986, was modified and used as described below. Reactions mixtures contained the catalytic domain of the human GARFT, 0-250 nM of Compound 1, 20 µM glycinamide ribonucleotide (GAR), 10 or 20 µM N^10-formyl-5,8-dideazafolate (FDDF), 50 mM HEPES-KOH, pH 7.5, and 50 mM KCl. The reaction was initiated with the addition of enzyme to a final concentration of 11 nM, followed by monitoring of the increase in absorbance at 294 nm at 20°C (e294 = 18.9 mM^-1 cm^-1).
The GARFT inhibition constant (Ki) was determined from the dependence of the steady-state catalytic rate on inhibitor and substrate concentration. […] The Michaelis constant for FDDF, Km, was determined independently by the dependence of the catalytic rate on FDDF concentration. Data for both the Km and Ki determinations were fitted by nonlinear methods to the Michaelis equation, or the Michaelis equation for competitive inhibition, as appropriate. Data resulting from tight-binding inhibition was analyzed, and Ki determined, by fitting the data to the tight-binding equation of Morrison, Biochem Biophys Acta 185 (1969), 269-286, by nonlinear methods.

Nc1nc2c(c(=O)[nH]1)SC(CCc1ccc(C(=O)N[C@@H](CCC(=O)O)C(=O)O)s1)CN2 (stereo partly drawn) [Compound 1, 4-[2-(2-Amino-4-oxo-4,6,7,8-tetrahydro-3H-pyrimido[5,4-6][1,4]thiazin-6-yl)-ethyl]-2,5-thienoylamino-L-glutamic acid]
% Inhibition (6C3HED lymphosarcoma; 12.5 mg/kg intraperitoneally in 40% Encapsin once daily for nine days): 100% | % Inhibition (6C3HED lymphosarcoma; 25 mg/kg intraperitoneally in 40% Encapsin once daily for nine days): 100% | % Inhibition (6C3HED lymphosarcoma; 50 mg/kg intraperitoneally in 40% Encapsin once daily for nine days): toxic | IC50 (CCRF-CEM): 4.3 nM | % Inhibition ([1]; 5 mg/kg intraperitoneally in 40% Encapsin once daily for nine days): 16% | % Inhibition ([1]; 10 mg/kg intraperitoneally in 40% Encapsin once daily for nine days): 84% | % Inhibition ([1]; 20 mg/kg intraperitoneally in 40% Encapsin once daily for nine days): 100% | IC50 (L1210): 16 nM | Ki [2]: 4.5 nM

Reference: EP0783507B1, “COMPOUNDS USEFUL AS ANTIPROLIFERATIVE AGENTS AND GARFT INHIBITORS” (AGOURON PHARMACEUTICALS, INC., priority 1994, dated 1996)
